From US10662060B2, “Manufacture of lipid-based nanoparticles using a dual asymmetric centrifuge” (priority 2004, dated 2020)

What was measured:
[1] = Inclusion efficiency for bendamustine in VPG (ion exchanger separation of free drug); format: physicochemical; conditions: direct inclusion in VPG by speed mixing, 3540 rpm 30 min; ± SD
Experimental: (§1) Within the context of the present invention, the “enclosure efficiency” is the ratio (percentage) of the amount of the measured substance (e.g., of an active substance) which is included in the lipid-based nanoparticles, associated to the nanoparticles or incorporated into the nanoparticles, to the total amount of the respective substance used for the formulation.
Into a 25 ml injection bottle (outer diameter: 36 mm), 1.0 g of the mixture of hydrogenated egg phosphatidylcholine and cholesterol (55/45 mole %) existing as a solid solution as well as 1.0 g of glass beads (diameter 1 mm) was weighed under sterile conditions. The bottle was flange-sealed. Through the septum, 1.5 ml of a Bendamustin® hydrochloride solution (containing 9.09 mg of bendamustine/ml; the solution was prepared by reconstitution from Bendamustin of Ribosepharm; thus, 0.9% NaCl solution was injected into the medicine bottle with the lyophilized medicament) was added. […] Samples of the VPGs containing bendamustine were taken, and the inclusion efficiency for bendamustine was determined to be 40.6±3.08% (SD) (separation of the free bendamustine: by ion exchanger, Moog et al., Cancer Chem Pharmacol 49: 356 (2002), bendamustine analytics: Maas, B. et al., Pharmazie 49: 775-777 (1994)). The mean size of the vesicles was determined by PCS to be 62.5±3.5 nm (SD) (n: 8).

[2] = Inclusion efficiency for trypan blue in liposomes (absorption spectroscopy of supernatant); format: physicochemical; conditions: EPC3/cholesterol 55/45; 3540 rpm 10 min
Experimental: Within the context of the present invention, the “enclosure efficiency” is the ratio (percentage) of the amount of the measured substance (e.g., of an active substance) which is included in the lipid-based nanoparticles, associated to the nanoparticles or incorporated into the nanoparticles, to the total amount of the respective substance used for the formulation. Into two glass vials (diameter 10 mm), 100 mg each of glass beads (diameter 1 mm) and 50 mg each of the mixture of hydrogenated egg phosphatidylcholine and cholesterol (55/45 mole %) existing as a solid solution was weighed. Into one vial, 75 μl of a trypan blue solution (1000 μl of commercially available trypan blue solution (0.4%) plus 30 ml of 25% ammonia solution) was pipetted. Into the second vial, 75 μl of 0.9% NaCl solution was added. The closed vials were subjected to speed mixing at 3540 rpm for 10 minutes each. The liposome gel loaded with trypan blue solution was redispersed with 250 μl of NaCl solution. The liposome gel prepared with saline only was redispersed with 175 μl of NaCl solution plus 75 μl of trypan blue solution. […] In the supernatant, the trypan blue concentration was subsequently determined by absorption spectroscopy, and the inclusion efficiency was calculated. […]

[3] = Inclusion efficiency for RNA-Cy3 in liposomes (fluorescence spectroscopy of supernatant); format: physicochemical; conditions: 1 μM RNA-Cy3, 3540 rpm 10 min
Experimental: as §1
Into two glass vials (diameter 10 mm), 100 mg each of glass beads (diameter 1 mm) and 50 mg each of the mixture of hydrogenated egg phosphatidylcholine and cholesterol (55/45 mole %) existing as a solid solution was weighed. Into one vial, 75 μl of a 1 μM RNA-Cy3 solution (RNA: 27mer; 5′-GGA GCU CGC U T**C GGC GAG GUC GUG CCA-3′; T**=thymidine-C6-amino-NHS-Cy3; Cy3: fluorescence dye; Qiagen) was pipetted. Into the second vial, 75 μl of NaCl solution was added. The closed vials were subjected to speed mixing at 3540 rpm for 10 minutes each. The liposome gel loaded with RNA-Cy3 solution was redispersed with 250 μl of NaCl solution. […] In the supernatant, the relative concentrations of fluorescence-labeled RNA were subsequently determined by fluorescence spectroscopy (em: 565, ex; 515 nm), and the inclusion efficiency for RNA-Cy3 was calculated by dividing the values by one another (60.1%). The mean size of the redispersed vesicles was determined by means of PCS to be 127.8 nm. […]

[4] = Mean size of liposomes / lipid-based nanoparticles by photon correlation spectroscopy (PCS); format: physicochemical
[5] = empty VPG by high-pressure homogenization, gemcitabine incorporated by passive loading (EP 1 087 752); cited from earlier work
[6] = Inclusion efficiency for gemcitabine in VPG; format: physicochemical; conditions: for Inclusion efficiency: then passive loading 60° C. 2 hours
Experimental: as §1
Into a 25 ml injection bottle (outer diameter: 36 mm), 1.48 g of the mixture of hydrogenated egg phosphatidylcholine and cholesterol (55/45 mole %) existing as a solid solution as well as 3 g of glass beads (diameter 1 mm) was weighed under sterile conditions. The bottle was flange-sealed. Through the septum, 500 μl of a Gemzar® solution (containing 38.02 mg of gemcitabine/ml; Gemzar® is the name of the gemcitabine-containing medicament of the company Lilly, one injection bottle contains 200 mg of gemcitabine (lyophilized) and is reconstituted with 5 ml of 0.9% NaCl) as well as 2.22 g of 5% mannitol solution was added. The mixture was subjected to speed mixing at 3540 rpm for 20 minutes to form gemcitabine-containing VPG.
Into a 25 ml injection bottle, 3.7 g of VPG (660 mM lipid, mixture of hydrogenated egg phosphatidylcholine and cholesterol (55/45 mole %), existing as a solid solution) was charged, and the bottle was centrifuged briefly, so that a uniformly thick layer of VPG formed at the bottom of the vessel. To this layer, 500 μl of a Gemzar® solution was added (contains 38.02 mg of gemcitabine/ml; Gemzar® is the name of the gemcitabine-containing medicament of the company Lilly, one injection bottle contains 200 mg of gemcitabine (lyophilized) and is reconstituted with 5.0 ml of 0.9% NaCl). […]
Subsequently, the VPG-gemcitabine mixture as well as a comparative sample in which gemcitabine was incorporated into the VPG by two shaking steps for 10 and 5 minutes, respectively, with an incubation break for 1 hour between, incubated at 60° C. for 2 hours for passive loading, the VPG was subsequently redispersed, and the inclusion efficiency for gemcitabine was determined.

Cn1c(CCCC(=O)O)nc2cc(N(CCCl)CCCl)ccc21 [bendamustine]
inclusion efficiency for bendamustine [1]: 40.6±3.08%

Cc1cc(-c2ccc(/N=N/c3c(S(=O)(=O)O)cc4cc(S(=O)(=O)O)cc(N)c4c3O)c(C)c2)ccc1/N=N/c1c(S(=O)(=O)O)cc2cc(S(=O)(=O)O)cc(N)c2c1O [trypan blue]
inclusion efficiency for trypan blue in liposomes by speed mixing [2]: 51%

RNA-Cy3: fluorescence-labeled RNA 27mer 5′-GGA GCU CGC U T**C GGC GAG GUC GUG CCA-3′, T**=thymidine-C6-amino-NHS-Cy3 (Qiagen) (chain 1 GGAGCUCGCUT; chain 2 CGGCGAGGUCGUGCCA; Cy3 label on thymidine-C6-amino, chemistry not fully specified)
inclusion efficiency for RNA-Cy3 ([3]; negatively charged liposomes (hydrogenated egg PC/cholesterol/DPPG 46/33/20)): 82.9%
inclusion efficiency for RNA-Cy3 ([3]; neutral liposomes (hydrogenated egg PC/cholesterol 55/45)): 60.1%
mean size of the redispersed vesicles ([4]; RNA-Cy3-loaded negatively charged liposomes (hydrogenated egg PC/cholesterol/DPPG 46/33/20)): 238.1 nm
mean size of the redispersed vesicles ([4]; RNA-Cy3-loaded neutral liposomes (hydrogenated egg PC/cholesterol 55/45)): 127.8 nm

Nc1ccn([C@@H]2O[C@H](CO)[C@@H](O)C2(F)F)c(=O)n1 [gemcitabine]
inclusion efficiency for passive loading [5]: 43-47%
inclusion efficiency for gemcitabine ([6]; direct inclusion in VPG by speed mixing, 3540 rpm 20 min): 80.7%
Inclusion efficiency ([6]; gemcitabine incorporated into prefabricated VPG by shaking (10 and 5 min)): 47%
Inclusion efficiency ([6]; gemcitabine incorporated into prefabricated VPG by speed mixing (0.5 min)): 44%
